Results from patent US20230338347A1, “New Use of Inhibitors of the Notch Signalling Pathway” (Cellestia Biotech AG, priority 2020, published 2023).

Columns and labels:
NOTCH target genes = experiment: NOTCH target gene expression in hair follicles of Phase 1 patients (Nanostring); type: in vivo, human; details: several NOTCH target genes, starting at Cycle 2 day 1
Excerpt: Hair follicles were obtained at pre-defined time points to measure changes in NOTCH target genes expression by 6-(4-Tert-Butylphenoxy)Pyridin-3-Amine treatment. NOTCH target gene down-regulation in hair follicles has been reported to be a robust and indicative biomarker that correlates with both clinical efficacy and the incidence of DLTs (Tanis K Q, et al. Clin Pharmacol Ther 2016; 99(4):370-80; Cook N, et al. BJC 2018; 118(6):793-801).
Between 5 to 10 hairs were plucked to extract the complete and undamaged hairbulb (full hair follicle), and processed as described in Camidge D R, et al. Br J Cancer 2005; 92:1837-41 and Bradley B J, et al. Mol EcolNotes 2005; 5:961-4. RNA concentration was measured by Qubit (RNAHighSensitivity), and RNA integrity was evaluated on a RNA 6000 Pico chip. RNA samples were tested for gene expression profiling on a Nanostring platform.
Table 1: NOTCH target down regulation in hair follicles and blood cells from Phase 1 patients. Target gene down regulation (CCND3, cyclin-D3; HES1, Hairy and enhance of split-1; HES4, Hairy and enhance of split-4; HESS, Hairy and enhance of split-5; HEY1, hes related family bHLH transcription factor with YRPW motif1; HEY2; hes related family bHLH transcription factor with YRPW motif 2; HEYL, hes-related family bHLH transcription factor with YRPW motif-like; IL7R-α, Interleukin-7 receptor subunit alpha; NOTCH1; NOTCH2; NRARP (NOTCH Regulated Ankyrin Repeat Protein): […]

[1] = Phase I/IIA first-in-human dose escalation: safety and tolerability (adverse events, DLT); details: in vivo
Excerpt: […], open-label study investigating the safety, tolerability, pharmacokinetics (PK), pharmacodynamics (PD) and preliminary efficacy of the pan-NOTCH inhibitor 6-(4-Tert-Butylphenoxy)Pyridin-3-Amine in adult patients with locally advanced or metastatic solid tumours or hematologic malignancies.
6-(4-Tert-Butylphenoxy)Pyridin-3-Amine is orally administered and is a small molecule targeting the NOTCH signalling pathway with binding to the NOTCH-specific transcription complex located at the nucleus of cells. The study is divided into two parts with Part A being the dose escalation part of the study to determine the maximum tolerated dose (MTD) or recommended Phase II dose (RP2D). In Part A at least 3, up to 6 patients per dose will participate in the sequentially enrolled dose cohorts. In an additional cohort of approximately 45-50 patients, the safety of the previously determined RP2D will be confirmed (dose confirmatory cohort).
The dosing will be 15, 30, 60, 120, 170, 250, 400, or 600 mg of the 6-(4-Tert-Butylphenoxy)Pyridin-3-Amine monohydrochloride salt or higher per day or alternatively 20, 40, 60, 120, 170, 250, 400, or 600 mg of the 6-(4-Tert-Butylphenoxy)Pyridin-3-Amine monohydrochloride salt or higher per day. Dosing of 15, 30, 60, 120, 170, 250, 400, or 600 mg of the 6-(4-Tert-Butylphenoxy)Pyridin-3-Amine monohydrochloride salt corresponds to dosing of 13, 26, 52, 104, 148, 217, 348, or 522 mg of 6-(4-Tert-Butylphenoxy)Pyridin-3-Amine (free base). Dosing of 20, 40, 60, 120, 170, 250, 400, or 600 mg of the 6-(4-Tert-Butylphenoxy)Pyridin-3-Amine monohydrochloride salt corresponds to dosing of 17, 35, 52, 104, 148, 217, 348, or 522 mg of 6-(4-Tert-Butylphenoxy)Pyridin-3-Amine (free base). For this study, 6-(4-Tert-Butylphenoxy)Pyridin-3-Amine monohydrochloride salt was formulated into a capsule having a drug load of 5, 10, 20, 50 and 100 mg, respectively intended to be administered orally. • Patients will meet the following criteria:
The primary outcome measures for this study are: • Part A (Escalation): Dose limiting toxicities (DLT) • Part B (Expansion): Best overall response according to the respective tumour assessment criteria for the different cancer indications.
Fourty-one patients (median age 55 years, range 25 to 76 years) have been treated with 6-(4-Tert-Butylphenoxy)Pyridin-3-Amine in the dose escalation part of the clinical study at oral doses of 15 mg-600 mg QD (once a day). […] Cumulatively, a total of 352 AEs has occurred in 41 patients since study initiation, of which 132 AEs […] in 31 patients were considered related to the study drug. The treatment-related treatment-emergent AEs (TEAEs) most commonly reported (≥10% of patients) were nausea (24%), diarrhea (20%), dyspepsia (15%), fatigue (12%), and vision blurred (12%).

CC(C)(C)c1ccc(Oc2ccc(N)cn2)cc1 [6-(4-Tert-Butylphenoxy)Pyridin-3-Amine]
average NOTCH target gene downregulation compared to baseline (inhibition) (NOTCH target genes): higher than 90% | AEs considered related to the study drug, share of all AEs ([1]; human): 37.2% | number of AEs considered related to the study drug ([1]; human): 132 | number of patients with AEs considered related to the study drug ([1]; human): 31 | number of serious adverse events (SAEs) ([1]; human): 12 | related AE of tachycardia ([1]; human): one related AE of tachycardia Grade 1 | serious adverse events, share of all AEs ([1]; human): 3.4% | total number of AEs ([1]; human): 352 | treatment-related TEAE diarrhea ([1]; human): 20% | treatment-related TEAE dyspepsia ([1]; human): 15% | treatment-related TEAE fatigue ([1]; human): 12% | treatment-related TEAE nausea ([1]; human): 24% | treatment-related TEAE vision blurred ([1]; human): 12% | QTc prolongation [1]: no QTc prolongations | SAEs considered related to study drug [1]: one SAE was considered related to study drug | cardiotoxicity signal [1]: no signal of cardiotoxicity | deaths due to drug-related AEs [1]: No deaths due to drug-related AEs | dose limiting toxicity (DLT) [1]: one dose limiting toxicity | dose relation of AEs over the dose cohorts [1]: no evidence of dose relation | skin phototoxicity or eye mydriasis events [1]: No events of skin phototoxicity or eye mydriasis
